According to article PMC5775428, “Towards an experimental classification system for membrane active peptides” (Scientific Reports, 2018):
Read-outs that look alike come from different tables or passages of the source. No end group written: not given here.

What was measured:
[1] = test system: Erwinia carotovora
In short: (§1)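 Read-out was optical microscopy, with the MIC taken as the concentration showing no detectable cells. Peptides spanned 0.5 to 256 μM under CLSI M7-A10 conditions for bacteria, in three biological repetitions of duplicate wells.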

[2] = test system: Pseudomonas syringae pv. tabaci
In short: as §1

[3] = test system: Bacillus cereus
In short: as §1

[4] = test system: Xanthomonas campestris; conditions: for Minimum inhibitory concentration, Average: average of triplicates
In short: as §1

[5] = test system: Cryptococcus neoformans
In short: (§2)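 MICs determined per CLSI M7-A10 (bacteria) and M27-A3 (yeasts) protocols, peptides tested at 0.5 to 256 μM. MIC taken as the lowest concentration with no cells seen by optical microscopy; three biological repeats with 2 technical replicates each.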

[6] = test system: Staphylococcus aureus
In short: as §1

[7] = test system: Escherichia coli
In short: as §1

[8] = test system: Pseudomonas aeruginosa
In short: as §1

[9] = test system: Candida albicans
In short: as §2

[10] = test system: Bacillus subtilis
In short: as §1

[11] = Erwinia carotovora, CLSI M7-A10, triplicate 1
[12] = Erwinia carotovora, average of triplicates
[13] = Erwinia carotovora, triplicate 2
[14] = Erwinia carotovora, triplicate 3
[15] = Pseudomonas syringae pv. tabaci, CLSI M7-A10, triplicate 1
[16] = Pseudomonas syringae pv. tabaci, average of triplicates
[17] = Pseudomonas syringae pv. tabaci, triplicate 2
[18] = Pseudomonas syringae pv. tabaci, triplicate 3
[19] = Bacillus cereus, CLSI M7-A10, triplicate 1
[20] = Bacillus cereus, average of triplicates
[21] = Cryptococcus neoformans, CLSI M27-A3, triplicate 1
[22] = Cryptococcus neoformans, average of triplicates
[23] = Cryptococcus neoformans, triplicate 2
[24] = Cryptococcus neoformans, triplicate 3
[25] = Staphylococcus aureus, CLSI M7-A10, triplicate 1
[26] = Staphylococcus aureus, average of triplicates
[27] = Staphylococcus aureus, triplicate 2
[28] = Staphylococcus aureus, triplicate 3
[29] = Escherichia coli, CLSI M7-A10, triplicate 1
[30] = Escherichia coli, average of triplicates
[31] = Candida albicans, CLSI M27-A3, 0.5 to 256 μM tested, triplicate 1, also published in ref 7
[32] = Candida albicans, average of triplicates
[33] = Bacillus subtilis, CLSI M7-A10, triplicate 1
[34] = Bacillus subtilis, average of triplicates
[35] = Bacillus subtilis, triplicate 2
[36] = Bacillus subtilis, triplicate 3

## GLLFKELQKLIRYQIFIGK [Tc10]
[1]; [11]
  Minimum inhibitory concentration: 512 µM
[1]; [12]
  Minimum inhibitory concentration, Average: 512.0 µM
[1]; [13]
  Minimum inhibitory concentration: 512 µM
[1]; [14]
  Minimum inhibitory concentration: 512 µM
[2]; [15]
  Minimum inhibitory concentration: 512 µM
[2]; [16]
  Minimum inhibitory concentration, Average: 512.0 µM
[2]; [17]
  Minimum inhibitory concentration: 512 µM
[2]; [18]
  Minimum inhibitory concentration: 512 µM
[3]; [19]
  Minimum inhibitory concentration: 512 µM
[3]; [20]
  Minimum inhibitory concentration, Average: 512.0 µM
[3]; Bacillus cereus, triplicate 2
  Minimum inhibitory concentration: 512 µM
[3]; Bacillus cereus, triplicate 3
  Minimum inhibitory concentration: 512 µM
[4]; CLSI M7-A10, triplicate 1
  Minimum inhibitory concentration: 128 µM
[4]
  Minimum inhibitory concentration, Average: 128.0 µM
[4]; triplicate 2
  Minimum inhibitory concentration: 128 µM
[4]; triplicate 3
  Minimum inhibitory concentration: 128 µM
[5]; [21]
  Minimum inhibitory concentration: 64 µM
[5]; [22]
  Minimum inhibitory concentration, Average: 64.0 µM
[5]; [23]
  Minimum inhibitory concentration: 64 µM
[5]; [24]
  Minimum inhibitory concentration: 64 µM
[6]; [25]
  Minimum inhibitory concentration: 512 µM
[6]; [26]
  Minimum inhibitory concentration, Average: 512.0 µM
[6]; [27]
  Minimum inhibitory concentration: 512 µM
[6]; [28]
  Minimum inhibitory concentration: 512 µM
[7]; [29]
  Minimum inhibitory concentration: 16 µM
[7]; [30]
  Minimum inhibitory concentration, Average: 26.7 µM
[7]; Escherichia coli, triplicate 2
  Minimum inhibitory concentration: 32 µM
[7]; Escherichia coli, triplicate 3
  Minimum inhibitory concentration: 32 µM
[8]
  Minimum inhibitory concentration: 128 µM
  Minimum inhibitory concentration, Average: 128.0 µM
[9]; [31]
  Minimum inhibitory concentration: 64 µM
[9]; [32]
  Minimum inhibitory concentration, Average: 64.0 µM
[9]; Candida albicans, triplicate 2
  Minimum inhibitory concentration: 64 µM
[9]; Candida albicans, triplicate 3
  Minimum inhibitory concentration: 64 µM
[10]; [33]
  Minimum inhibitory concentration: 16 µM
[10]; [34]
  Minimum inhibitory concentration, Average: 16.0 µM
[10]; [35]
  Minimum inhibitory concentration: 16 µM
[10]; [36]
  Minimum inhibitory concentration: 16 µM

## GLWSTIKQKGKEAAIAAAKAAGQAALGAL-NH2 [DS01, Dermaseptin DS01, reference compound]
[1]
  Minimum inhibitory concentration, Average: 0.5 µM
[2]
  Minimum inhibitory concentration, Average: 1.0 µM
[3]
  Minimum inhibitory concentration, Average: 16.0 µM
[4]
  Minimum inhibitory concentration, Average: 0.5 µM
[5]
  Minimum inhibitory concentration, Average: 8.0 µM
[6]
  Minimum inhibitory concentration, Average: 8.0 µM
[7]
  Minimum inhibitory concentration, Average: 1.0 µM
[8]
  Minimum inhibitory concentration, Average: 2.0 µM
[9]
  Minimum inhibitory concentration, Average: 4.0 µM
[10]
  Minimum inhibitory concentration, Average: 1.0 µM

## GLYNFIKVLGRTVFGLYKQF [At04]
[1]
  Minimum inhibitory concentration: 512 µM
  Minimum inhibitory concentration, Average: 512.0 µM
[2]
  Minimum inhibitory concentration: 512 µM
  Minimum inhibitory concentration, Average: 512.0 µM
[3]
  Minimum inhibitory concentration: 512 µM
  Minimum inhibitory concentration, Average: 512.0 µM
[4]; CLSI M7-A10, triplicate 1
  Minimum inhibitory concentration: 512 µM
[4]
  Minimum inhibitory concentration, Average: 512.0 µM
[4]; triplicate 2
  Minimum inhibitory concentration: 512 µM
[4]; triplicate 3
  Minimum inhibitory concentration: 512 µM
[5]; [21]
  Minimum inhibitory concentration: 64 µM
[5]; [22]
  Minimum inhibitory concentration, Average: 64.0 µM
[5]; [23]
  Minimum inhibitory concentration: 64 µM
[5]; [24]
  Minimum inhibitory concentration: 64 µM
[6]; [25]
  Minimum inhibitory concentration: 16 µM
[6]; [26]
  Minimum inhibitory concentration, Average: 16.0 µM
[6]; [27]
  Minimum inhibitory concentration: 16 µM
[6]; [28]
  Minimum inhibitory concentration: 16 µM
[7]
  Minimum inhibitory concentration: 512 µM
  Minimum inhibitory concentration, Average: 512.0 µM
[8]
  Minimum inhibitory concentration: 512 µM
  Minimum inhibitory concentration, Average: 512.0 µM
[9]
  Minimum inhibitory concentration: 512 µM
  Minimum inhibitory concentration, Average: 512.0 µM
[10]; [33]
  Minimum inhibitory concentration: 256 µM
[10]; [34]
  Minimum inhibitory concentration, Average: 256.0 µM
[10]; [35]
  Minimum inhibitory concentration: 256 µM
[10]; [36]
  Minimum inhibitory concentration: 256 µM

## GSLHGFMYKYLKNMVLNLF [Tc06]
[1]; [11]
  Minimum inhibitory concentration: 128 µM
[1]; [12]
  Minimum inhibitory concentration, Average: 128.0 µM
[1]; [13]
  Minimum inhibitory concentration: 128 µM
[1]; [14]
  Minimum inhibitory concentration: 128 µM
[2]; [15]
  Minimum inhibitory concentration: 16 µM
[2]; [16]
  Minimum inhibitory concentration, Average: 16.0 µM
[2]; [17]
  Minimum inhibitory concentration: 16 µM
[2]; [18]
  Minimum inhibitory concentration: 16 µM
[3]; [19]
  Minimum inhibitory concentration: 64 µM
[3]; [20]
  Minimum inhibitory concentration, Average: 64.0 µM
[3]; Bacillus cereus, triplicate 2
  Minimum inhibitory concentration: 64 µM
[3]; Bacillus cereus, triplicate 3
  Minimum inhibitory concentration: 64 µM
[4]; CLSI M7-A10, triplicate 1
  Minimum inhibitory concentration: 64 µM
[4]
  Minimum inhibitory concentration, Average: 64.0 µM
[4]; triplicate 2
  Minimum inhibitory concentration: 64 µM
[4]; triplicate 3
  Minimum inhibitory concentration: 64 µM
[5]; [21]
  Minimum inhibitory concentration: 8 µM
[5]; [22]
  Minimum inhibitory concentration, Average: 10.7 µM
[5]; [23]
  Minimum inhibitory concentration: 8 µM
[5]; [24]
  Minimum inhibitory concentration: 16 µM
[6]; [25]
  Minimum inhibitory concentration: 8 µM
[6]; [26]
  Minimum inhibitory concentration, Average: 13.3 µM
[6]; [27]
  Minimum inhibitory concentration: 16 µM
[6]; [28]
  Minimum inhibitory concentration: 16 µM
[7]; [29]
  Minimum inhibitory concentration: 32 µM
[7]; [30]
  Minimum inhibitory concentration, Average: 32.0 µM
[7]; Escherichia coli, triplicate 2
  Minimum inhibitory concentration: 32 µM
[7]; Escherichia coli, triplicate 3
  Minimum inhibitory concentration: 32 µM
[8]; Pseudomonas aeruginosa, CLSI M7-A10, triplicate 1
  Minimum inhibitory concentration: 16 µM
[8]; Pseudomonas aeruginosa, average of triplicates
  Minimum inhibitory concentration, Average: 26.7 µM
[8]; Pseudomonas aeruginosa, triplicate 2
  Minimum inhibitory concentration: 32 µM
[8]; Pseudomonas aeruginosa, triplicate 3
  Minimum inhibitory concentration: 32 µM
[9]; [31]
  Minimum inhibitory concentration: 4 µM
[9]; [32]
  Minimum inhibitory concentration, Average: 4.0 µM
[9]; Candida albicans, triplicate 2
  Minimum inhibitory concentration: 4 µM
[9]; Candida albicans, triplicate 3
  Minimum inhibitory concentration: 4 µM
[10]; [33]
  Minimum inhibitory concentration: 16 µM
[10]; [34]
  Minimum inhibitory concentration, Average: 16.0 µM
[10]; [35]
  Minimum inhibitory concentration: 16 µM
[10]; [36]
  Minimum inhibitory concentration: 16 µM
